Reference: patent US10112929B2, “Lactams as inhibitors of rock” (BRISTOL-MYERS SQUIBB COMPANY, priority 2015, dated 2018)

The compounds below were run against ROCK2 (Homo sapiens (Human), UniProt O75116) (assay: biochemical).
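Note: rho kinase enzyme reaction halted with EDTA, phospho- and non-phospho peptide separated for read-out, kinase activity inhibition derived across a dose-response series, DMSO under 2%.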

Sequence of ROCK2 (O75116 whole entry, species assumed): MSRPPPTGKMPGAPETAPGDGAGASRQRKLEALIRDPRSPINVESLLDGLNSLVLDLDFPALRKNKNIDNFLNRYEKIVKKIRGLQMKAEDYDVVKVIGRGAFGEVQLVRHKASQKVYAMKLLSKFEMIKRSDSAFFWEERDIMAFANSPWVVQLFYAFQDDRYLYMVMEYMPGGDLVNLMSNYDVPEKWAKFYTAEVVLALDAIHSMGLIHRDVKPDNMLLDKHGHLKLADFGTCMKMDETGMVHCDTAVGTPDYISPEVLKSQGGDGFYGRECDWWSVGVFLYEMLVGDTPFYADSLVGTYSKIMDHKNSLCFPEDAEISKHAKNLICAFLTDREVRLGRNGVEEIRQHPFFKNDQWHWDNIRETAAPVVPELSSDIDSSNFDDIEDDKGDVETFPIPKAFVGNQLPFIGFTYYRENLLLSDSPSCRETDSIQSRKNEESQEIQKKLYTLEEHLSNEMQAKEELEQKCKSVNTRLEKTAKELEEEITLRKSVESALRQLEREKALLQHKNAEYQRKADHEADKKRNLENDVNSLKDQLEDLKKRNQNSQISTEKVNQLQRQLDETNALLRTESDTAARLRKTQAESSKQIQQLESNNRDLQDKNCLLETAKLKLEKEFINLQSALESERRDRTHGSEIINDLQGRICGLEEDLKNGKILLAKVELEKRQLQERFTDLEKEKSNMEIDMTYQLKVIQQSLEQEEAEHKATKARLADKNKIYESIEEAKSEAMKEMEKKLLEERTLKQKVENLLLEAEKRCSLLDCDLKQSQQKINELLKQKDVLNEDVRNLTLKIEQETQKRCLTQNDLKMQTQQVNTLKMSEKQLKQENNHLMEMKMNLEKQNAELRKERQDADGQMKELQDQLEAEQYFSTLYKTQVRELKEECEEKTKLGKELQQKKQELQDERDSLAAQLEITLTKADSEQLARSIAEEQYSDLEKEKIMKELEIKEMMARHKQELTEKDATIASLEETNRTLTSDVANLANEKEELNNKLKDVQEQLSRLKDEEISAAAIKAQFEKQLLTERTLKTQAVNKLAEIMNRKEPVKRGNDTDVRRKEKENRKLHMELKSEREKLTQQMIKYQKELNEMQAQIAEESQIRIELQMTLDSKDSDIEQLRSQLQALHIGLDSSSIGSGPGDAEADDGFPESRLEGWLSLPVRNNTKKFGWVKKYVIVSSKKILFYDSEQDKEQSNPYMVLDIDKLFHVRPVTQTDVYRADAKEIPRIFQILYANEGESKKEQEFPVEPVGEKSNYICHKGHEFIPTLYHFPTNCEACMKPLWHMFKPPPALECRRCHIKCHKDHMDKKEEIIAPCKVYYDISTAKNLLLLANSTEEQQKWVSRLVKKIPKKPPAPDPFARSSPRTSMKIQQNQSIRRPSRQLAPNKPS

IC50 [nM] | Compound
10 to 100 | O=C1C(c2ccccc2F)CCN1c1ccc(-c2cn[nH]c2)cc1 (centres unmarked) [Example 104, 1-(4-(1H-pyrazol-4-yl)phenyl)-3-(2-fluorophenyl)pyrrolidin-2-one]
10 to 100 | COc1cc(NC2CCN(c3ccc(-c4cn[nH]c4)nc3)C2=O)ccc1F (single isomer, unassigned) [Example 299, 1-(6-(1H-pyrazol-4-yl)pyridin-3-yl)-3-((4-fluoro-3-methoxyphenyl)amino)pyrrolidin-2-one]
100 to 2200 | COc1cc(NC2CCN(c3ccc(-c4cn[nH]c4)cc3Cl)C2=O)ccc1F (single isomer, unassigned) [Example 162, 1-(2-chloro-4-(1H-pyrazol-4-yl)phenyl)-3-((4-fluoro-3-methoxyphenyl)amino) pyrrolidin-2-one]
10 to 100 | O=C1C(Nc2cccc(OCC(F)F)c2)CCN1c1ccc(-c2cn[nH]c2)cc1 (single isomer, unassigned) [Example 238, 1-(4-(1H-pyrazol-4-yl)phenyl)-3-((3-(2,2-difluoroethoxy)phenyl)amino)pyrrolidin-2-one]
< 10 | CNc1nc(N2CCC(Nc3cc(F)cc(OC)c3)C2=O)ccc1-c1cn[nH]c1 (single isomer, unassigned) [Example 252, 3-((3-fluoro-5-methoxyphenyl)amino)-1-(6-(methylamino)-5-(1H-pyrazol-4-yl)pyridin-2-yl)pyrrolidin-2-one]
10 to 100 | COc1cc(NC2CCN(c3ccc(-c4cn[nH]c4)cn3)C2=O)ccc1F (single isomer, unassigned) [Example 83, 1-(5-(1H-pyrazol-4-yl)pyridin-2-yl)-3-((4-fluoro-3-methoxyphenyl)amino)pyrrolidin-2-one]
< 10 | COc1cc(F)cc(NC2CCN(c3ccc(-c4cn[nH]c4)c(OC)c3)C2=O)c1 (single isomer, unassigned) [Example 137, 3-((3-fluoro-5-methoxyphenyl)amino)-1-(3-methoxy-4-(1H-pyrazol-4-yl)phenyl) pyrrolidin-2-one]
100 to 2200 | COc1cc(NC2CCN(c3ccc(-c4cn[nH]c4)cc3)C2=O)cc(OC)c1 (single isomer, unassigned) [Example 21, 1-(4-(1H-pyrazol-4-yl)phenyl)-3-((3,5-dimethoxyphenyl)amino)pyrrolidin-2-one]
< 10 | COc1cccc(NC2CCN(c3ccc(-c4c[nH]nc4C)c(OC)n3)C2=O)c1 (racemic) [Example 129, 1-(6-methoxy-5-(3-methyl-1H-pyrazol-4-yl)pyridin-2-yl)-3-((3-methoxyphenyl)amino)pyrrolidin-2-one]
100 to 2200 | CCc1nc(N2CCC(Nc3ccc(F)c(OCC4CC4)c3)C2=O)ccc1-c1cn[nH]c1 (single isomer, unassigned) [Example 212, 3-((3-(cyclopropylmelhoxy)-4-fluorophenyl)amino)-1-(6-ethyl-5-(1H-pyrazol-4-yl)pyridin-2-yl)pyrrolidin-2-one]
10 to 100 | CC(=O)Nc1cccc(NC2CCN(c3ccc(-c4cn[nH]c4)cc3)C2=O)c1 (centres unmarked) [Example 391, N-(3-((1-(4-(1H-pyrazol-4-yl)phenyl)-2-oxopyrrolidin-3-yl)amino)phenyl)acetamide]
100 to 2200 | CCc1cc(N2CCC(Nc3cccc(OCC4CC4)c3)C2=O)ccc1-c1cn[nH]c1 (single isomer, unassigned) [Example 248, 3-((3-(cyclopropylmethoxy)phenyl)amino)-1-(3-ethyl-4-(1H-pyrazol-4-yl)phenyl)pyrrolidin-2-one]
100 to 2200 | COc1nc(N2CCC(N3CC[C@H](O)C3)C2=O)ccc1-c1cn[nH]c1 (mixture of isomers) [Example 295, (3S)-3-hydroxy-1′-(6-methoxy-5-(1H-pyrazol-4-yl)pyridin-2-yl)-[l,3′-bipyrrolidin]-2′-one]
10 to 100 | COc1cc(NC2CCN(c3ccc(-c4cn[nH]c4)cc3)C2=O)ccc1F (single isomer, unassigned) [Example 17, 1-(4-(1H-pyrazol-4-yl)phenyl)-3-((4-fluoro-3-methoxyphenyl)amino)pyrrolidin-2-one]
